Assay results reported in patent US11472758B2, “Methods for obtaining compounds from a plant or fungus material, respective compositions, and uses thereof” (Real Isolates, LLC, priority 2020, dated 2022).

Columns and labels:
[1] = tested on: CB1R; settings: performed similarly to THC, but at a lower potency; cited from earlier work
[2] = target: T1, CB1R (Homo sapiens, UniProt P21554); settings: known; cited from earlier work
[3] = has been shown; cited from earlier work
[4] = target: T2, CB2R (Homo sapiens, UniProt P34972); set-up: host or cells: brain synaptosomal samples; COS-7 over-expression; settings: brain synaptosomal samples; COS-7 over-expression model; cited from earlier work
[5] = target: T1, CB1R; set-up: host or cells: brain synaptosomal samples; COS-7 over-expression; settings: brain synaptosomal samples; COS-7 over-expression model; cited from earlier work
[6] = target: T2, CB2R; settings: known; cited from earlier work
[7] = tested on: volunteer with severe Crohn's disease; test: Human trial of HCD or MCD for Crohn's disease; format: in vivo
Description: A volunteer with severe Crohn's disease and who has had over 50 hospital emergency visits since diagnosis in 2015. Treatment with multiple pharmaceutical agents were unsuccessful. They stopped using all pharmaceutical agents in 2018. In August 2020, they began using HCD and MCD. They were able to completely stop a Crohn's disease flare in November 2020 using two consecutive doses of MCD.

[8] = tested on: volunteer with HNPP; test: Human trial of HCD or MCD for hereditary neuropathy with liability to pressure palsy (HNPP); format: in vivo
Experimental: A volunteer has a rare genetic disorder, HNPP, resulting in neuropathic pain, muscle weakness, numbness, and loss of fine motor skills. The volunteer previously needed high doses (more than 5 g/day) of medical Cannabis to receive beneficial effects, but reduced overall intake when they began taking HCD and MCD. Their current dose schedule is 15-30 mg of HCD per day (˜7 mg-15 mg CBD) and MCD as needed. They are not taking any other medication.

[9] = tested on: volunteer with severe, chronic migraines; test: Human trial of HCD or MCD for chronic migraine; format: in vivo
[10] = tested on: volunteer with a developmental disorder; test: Human trial of HCD or MCD for autism spectrum/schizophrenia spectrum disorder; format: in vivo
Description: An assigned person at birth nonbinary volunteer with a history of a developmental disorder whose symptoms span both Autism Spectrum Disorder and Schizophrenia Spectrum Disorder. They stopped taking all psychopharmaceutical agents in 2010 after beginning to use medical Cannabis daily. Outside of 3 relapses due to over 14+ days without Cannabis, they have had no issues managing their symptoms since. Due to decreased symptoms, they are highly functional, fully independent, and no longer meet criteria for their previous diagnoses. In August 2020, they began using the HCD and MCD. They have not missed a single dose of HCD in 5 months; it is their longest span of completely continuous compliance.

[11] = tested on: mice; settings: cited from earlier work
[12] = tested on: 15-lipoxygenase (15-LOX); settings: has been shown; cited from earlier work
[13] = smoking/inhalation at 575-600° F., 7 mg CBD isolate
[14] = smoking/inhalation at 575-600° F., 25 mg CBD isolate

T2 sequence (P34972 whole entry): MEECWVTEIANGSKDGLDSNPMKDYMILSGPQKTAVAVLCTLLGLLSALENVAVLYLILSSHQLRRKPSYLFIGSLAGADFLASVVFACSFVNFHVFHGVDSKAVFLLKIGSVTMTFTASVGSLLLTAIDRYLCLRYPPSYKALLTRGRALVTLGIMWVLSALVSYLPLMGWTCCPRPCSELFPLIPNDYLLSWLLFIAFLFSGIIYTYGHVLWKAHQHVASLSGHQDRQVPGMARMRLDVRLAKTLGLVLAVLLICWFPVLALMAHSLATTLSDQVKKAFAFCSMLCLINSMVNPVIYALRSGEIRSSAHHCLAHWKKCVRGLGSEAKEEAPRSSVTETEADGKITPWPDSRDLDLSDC
T1 sequence (P21554 whole entry): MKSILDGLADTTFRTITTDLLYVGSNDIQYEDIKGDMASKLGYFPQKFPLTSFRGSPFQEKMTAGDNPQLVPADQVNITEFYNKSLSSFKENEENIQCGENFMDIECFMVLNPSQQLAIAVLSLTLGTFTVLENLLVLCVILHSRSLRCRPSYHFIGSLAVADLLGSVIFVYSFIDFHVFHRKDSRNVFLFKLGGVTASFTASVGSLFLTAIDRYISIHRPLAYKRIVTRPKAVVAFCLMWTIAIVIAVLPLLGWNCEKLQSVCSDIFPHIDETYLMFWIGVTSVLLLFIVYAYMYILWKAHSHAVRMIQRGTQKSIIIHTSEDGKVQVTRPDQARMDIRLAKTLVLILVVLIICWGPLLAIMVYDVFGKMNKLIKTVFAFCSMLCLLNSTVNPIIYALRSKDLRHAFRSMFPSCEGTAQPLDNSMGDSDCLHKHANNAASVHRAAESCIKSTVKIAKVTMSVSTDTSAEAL

Q: Which “Activity in drug discrimination trials” value [1] does the source give for `C=C1CC[C@@H]2[C@@H](C1)c1c(O)cc(CCCCC)cc1OC2(C)C` [exo-tetrahydrocannabinol] here?
A: partial agonist activity

Q: And the “Interaction with CB1R” value [2]?
A: interact with CB1R

Q: What about the Antibacterial activity [3] of the same compound?
A: potent antibacterial activity

Q: Which “Potency at CB2 receptor relative to CBN” value [4] does the source give for `CCCCCc1cc(OCCC)c2c(c1)OC(C)(C)c1ccc(C)cc1-2` [oprCBN, o-propylcannabinol] here?
A: vastly increase its potency

Q: What about the “Potency at CB1 receptor relative to CBN” value [5] of the same compound?
A: vastly increase its potency

Q: With `CCCCCc1cc(OC)c2c(c1)OC(C)(C)c1ccc(C)cc1-2` [omCBN, o-methylcannabinol] as the compound, how does the “Potency at CB2 receptor relative to CBN” value [4] read?
A: vastly increase its potency

Q: And the “Potency at CB1 receptor relative to CBN” value [5]?
A: vastly increase its potency

Q: Which “Activity at CB2R” value [6] does the source give for `CCCCCc1cc(O)c2c(c1)OC(C)(C)[C@@H]1CCC(C)=C[C@@H]21` [THC, Δ9-tetrahydrocannabinol] here?
A: partial agonist activity at nanomolar concentrations

Q: Which “Potency at CB2 receptor relative to CBN” value [4] does the source give for `CCCCCOc1cc(CCCCC)cc2c1-c1cc(C)ccc1C(C)(C)O2` [opeCBN, o-pentylcannabinol] here?
A: vastly increase its potency

Q: What about the “Potency at CB1 receptor relative to CBN” value [5] of the same compound?
A: vastly increase its potency

Q: For `CCCCCc1cc(O)c2c(c1)OC(C)(C)C1CCC(C)C=C21` (centres unmarked) [Δ10-Tetrahydrocannabinol, Δ10-tetrahydrocannabinol], which “Interaction with CB1R” value [2] is on record?
A: interact with CB1R

Q: For `C=C(C)[C@@H]1CCC(C)=C[C@H]1c1c(O)cc(CCCCC)cc1O` [CBD, cannabidiol], which “Activity at CB2R” value [6] is on record?
A: neutral antagonist activity at nanomolar concentrations

Q: What about the “Oral dose needed to achieve results similar to 15 mg HCD” value ([7]; commercially available CBD isolate, two or more consecutive days) of the same compound?
A: over 50 mg

Q: What about the “Time at which effects began to wear off” value [7, 13] of the same compound?
A: 45 min

Q: What about the “Time at which no noticeable effects remained” value [7, 13] of the same compound?
A: 60 min

Q: And the “Time of decreased pain, stress, and anxiety” value [7, 13]?
A: 15 min

Q: What about the “Activity at CB1R” value [2] of the same compound?
A: neutral antagonist activity at nanomolar concentrations

Q: And the “Effect after oral administration” value ([8]; oral, 15-30 mg HCD or same dose of commercially available CBD isolate)?
A: no noticeable effect

Q: What about the “Time at which effects began to wear off” value [8, 14] of the same compound?
A: 45 min

Q: And the “Time at which no noticeable effects remained” value [8, 14]?
A: 60 min

Q: And the “Time at which pain relief began” value [8, 14]?
A: 10 min

Q: What about the Effect on migraines ([9]; commercial CBD isolate 50 mg/day titrated up to 250 mg/day, after two months) of the same compound?
A: marked decrease in the number and severity of migraines

Q: And the “Oral dose needed to achieve results similar to 15 mg HCD” value ([9]; commercially available CBD isolate, anxiety, migraine threshold, migraine severity)?
A: over 200 mg

Q: And the “After effect observed the next day” value ([10]; 400-600 mg commercially available CBD isolate)?
A: “hangover”

Q: What about the Negative side effects ([10]; doses of 50 mg/day of CBD) of the same compound?
A: forgetfulness/brain fog, apathy, decreased endurance, decreased strength, interrupted sleep routine

Q: What about the “Dose used to abort panic attacks and/or break perseverative loops” value ([10]; oral, same efficacy) of the same compound?
A: 400 to 600 mg

Q: And the “Potency compared to orally ingested hemp Cannabis distillate (times less potent)” value ([10]; orally ingested, Example 20)?
A: at least 10 times

Q: With `CCCCCc1cc(O)c2c(c1)OC(C)(C)c1ccc(C)cc1-2` [CBN, cannabinol] as the compound, how does the Pentobarbital-induced sleeping time [11] read?
A: double

Q: Which 15-LOX inhibition [12] does the source give for `C=C(C)[C@@H]1CCC(C)=C[C@H]1c1c(O)cc(CCCCC)cc1OC` [omCBD, o-methylcannabidiol] here?
A: selective and potent
